ChEMBL document CHEMBL2176980, “Influence of chlorine or fluorine substitution on the estrogenic properties of 1-alkyl-2,3,5-tris(4-hydroxyphenyl)-1H-pyrroles” (J Med Chem, 2012)
Calls of active or inactive are those of the source. The calls are words filed in the database; no cut-off is given here.

molecular target: T1, Estrogen receptor (Homo sapiens) (UniProt P03372); assay: Activation of ERalpha in human MCF7/2a cells pre-exposed to compound 1 to 3 hrs before 0.1 uM 4-OHT addition by luciferase reporter gene assay relative to untreated control; assay type: cell-based; details: not given
T1 sequence (whole entry): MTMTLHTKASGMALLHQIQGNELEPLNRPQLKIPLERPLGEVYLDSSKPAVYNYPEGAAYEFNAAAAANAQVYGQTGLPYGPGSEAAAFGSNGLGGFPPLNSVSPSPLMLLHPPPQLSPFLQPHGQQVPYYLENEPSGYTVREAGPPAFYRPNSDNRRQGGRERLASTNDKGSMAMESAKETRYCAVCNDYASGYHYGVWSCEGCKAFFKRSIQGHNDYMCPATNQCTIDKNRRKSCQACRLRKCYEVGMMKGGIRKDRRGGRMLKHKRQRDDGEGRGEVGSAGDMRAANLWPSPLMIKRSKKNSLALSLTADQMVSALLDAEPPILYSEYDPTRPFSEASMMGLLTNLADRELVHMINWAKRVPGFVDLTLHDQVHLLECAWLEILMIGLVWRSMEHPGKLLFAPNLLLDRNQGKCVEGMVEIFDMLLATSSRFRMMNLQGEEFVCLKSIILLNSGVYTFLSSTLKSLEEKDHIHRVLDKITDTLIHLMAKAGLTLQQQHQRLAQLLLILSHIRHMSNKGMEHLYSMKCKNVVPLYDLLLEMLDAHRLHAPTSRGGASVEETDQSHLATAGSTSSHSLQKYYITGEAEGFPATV

Structure (SMILES)	Activity
CCCn1c(-c2ccc(O)cc2)cc(-c2ccc(O)cc2)c1-c1ccc(O)cc1	Active
CCCc1c(-c2ccc(O)cc2)cn(-c2ccc(O)cc2)c1-c1ccc(O)cc1	Active
CCCn1c(-c2ccc(O)cc2F)cc(-c2ccc(O)cc2)c1-c1ccc(O)cc1F	Active

system: not listed separately; assay: Toxicity in hormone-independent human MDA-MB-231 cells assessed as growth inhibition incubated for 4 day s by crystal violet assay; assay type: cell-based; details: not given

Structure (SMILES)	IC50 at 4 days [nM]
CCCn1c(-c2ccc(O)cc2F)cc(-c2ccc(O)cc2F)c1-c1ccc(O)cc1F	21900
CCCn1c(-c2ccc(O)cc2F)cc(-c2ccc(O)cc2)c1-c1ccc(O)cc1F	20900

system: MCF7; assay: Cytotoxicity in hormone-dependent human MCF7 cells assessed as growth inhibition incubated for 4 day s by crystal violet assay; assay type: functional, cell-based; details: MCF7, 96 h

Structure (SMILES)	IC50 [nM]
Cn1c(-c2ccc(O)cc2Cl)cc(-c2ccc(O)cc2)c1-c1ccc(O)cc1	23800
Cn1c(-c2ccc(O)cc2)cc(-c2ccc(O)cc2)c1-c1ccc(O)cc1Cl	19100
Cn1c(-c2ccc(O)cc2F)cc(-c2ccc(O)cc2)c1-c1ccc(O)cc1F	8500
CCCc1c(-c2ccc(O)cc2)nn(-c2ccc(O)cc2)c1-c1ccc(O)cc1 [PROPYLPYRAZOLETRIOL]	27200
Cn1c(-c2ccc(O)cc2F)cc(-c2ccc(O)cc2)c1-c1ccc(O)cc1	25500
CCCn1c(-c2ccc(O)cc2F)cc(-c2ccc(O)cc2F)c1-c1ccc(O)cc1F	5600
Cn1c(-c2ccc(O)cc2)cc(-c2ccc(O)cc2)c1-c1ccc(O)cc1F	24700

system: not listed separately; assay: Chemical stability in pH 7.3 PBS buffer at 10 uM at 37 degC; assay type: physicochemical; details: not given

Structure (SMILES)	half-life at 10 µM [days]
CCCn1c(-c2ccc(O)cc2)cc(-c2ccc(O)cc2)c1-c1ccc(O)cc1F	31
CCCn1c(-c2ccc(O)cc2)cc(-c2ccc(O)cc2)c1-c1ccc(O)cc1	10.7
CCCc1c(-c2ccc(O)cc2)cn(-c2ccc(O)cc2)c1-c1ccc(O)cc1	7.04
CCCn1c(-c2ccc(O)cc2Cl)cc(-c2ccc(O)cc2)c1-c1ccc(O)cc1	61.4
CCCn1c(-c2ccc(O)cc2F)cc(-c2ccc(O)cc2F)c1-c1ccc(O)cc1F	44

molecular target: T1, Estrogen receptor (Homo sapiens); assay: Activation of ERalpha in human MCF7/2a cells in presence of 0.1 uM 4-OHT by luciferase reporter gene assay relative to untreated control; assay type: cell-based; details: not given

Structure (SMILES)	Activity
CCCn1c(-c2ccc(O)cc2)cc(-c2ccc(O)cc2)c1-c1ccc(O)cc1	inactive
CCCc1c(-c2ccc(O)cc2)cn(-c2ccc(O)cc2)c1-c1ccc(O)cc1	inactive
CCCn1c(-c2ccc(O)cc2F)cc(-c2ccc(O)cc2)c1-c1ccc(O)cc1F	inactive

molecular target: T2, Estrogen receptor (Homo sapiens, UniProt P03372); assay: Activation of human ERalpha expressed in human U2-OS cells by luciferase reporter gene assay relative to untreated control; assay type: cell-based, U2OS; details: not given
T2 sequence (P03372 whole entry): T1 sequence (whole entry)

Structure (SMILES)	EC50 [nM]
CCCn1c(-c2ccc(O)cc2)cc(-c2ccc(O)cc2)c1-c1ccc(O)cc1Cl	0.31
Cn1c(-c2ccc(O)cc2Cl)cc(-c2ccc(O)cc2)c1-c1ccc(O)cc1	100
CCCn1c(-c2ccc(O)cc2)cc(-c2ccc(O)cc2)c1-c1ccc(O)cc1F	0.12
Cn1c(-c2ccc(O)cc2)cc(-c2ccc(O)cc2)c1-c1ccc(O)cc1Cl	16
CCCn1c(-c2ccc(O)cc2)cc(-c2ccc(O)cc2)c1-c1ccc(O)cc1	0.4
Cn1c(-c2ccc(O)cc2F)cc(-c2ccc(O)cc2)c1-c1ccc(O)cc1F	15
CCCc1c(-c2ccc(O)cc2)cn(-c2ccc(O)cc2)c1-c1ccc(O)cc1	1.6
CCCc1c(-c2ccc(O)cc2)nn(-c2ccc(O)cc2)c1-c1ccc(O)cc1 [PROPYLPYRAZOLETRIOL]	0.1
Cn1c(-c2ccc(O)cc2F)cc(-c2ccc(O)cc2)c1-c1ccc(O)cc1	24
CCCn1c(-c2ccc(O)cc2F)cc(-c2ccc(O)cc2)c1-c1ccc(O)cc1	0.67
CCCn1c(-c2ccc(O)cc2Cl)cc(-c2ccc(O)cc2)c1-c1ccc(O)cc1	47
CCCn1c(-c2ccc(O)cc2)cc(-c2ccc(O)cc2F)c1-c1ccc(O)cc1	0.84
CCCn1c(-c2ccc(O)cc2F)cc(-c2ccc(O)cc2F)c1-c1ccc(O)cc1F	0.2
Cn1c(-c2ccc(O)cc2)cc(-c2ccc(O)cc2)c1-c1ccc(O)cc1F	60
CCCn1c(-c2ccc(O)cc2F)cc(-c2ccc(O)cc2)c1-c1ccc(O)cc1F	0.27

molecular target: T1, Estrogen receptor (Homo sapiens); assay: Antagonist activity at ERalpha in human MCF7/2a cells assessed as reduction in 1 nM estradiol-induced receptor activation by luciferase reporter gene assay relative to untreated control; assay type: functional, cell-based; details: not given

Structure (SMILES)	Activity
CCCn1c(-c2ccc(O)cc2)cc(-c2ccc(O)cc2)c1-c1ccc(O)cc1Cl	inactive
Cn1c(-c2ccc(O)cc2Cl)cc(-c2ccc(O)cc2)c1-c1ccc(O)cc1	inactive
CCCn1c(-c2ccc(O)cc2)cc(-c2ccc(O)cc2)c1-c1ccc(O)cc1F	inactive
Cn1c(-c2ccc(O)cc2)cc(-c2ccc(O)cc2)c1-c1ccc(O)cc1Cl	inactive
Cn1c(-c2ccc(O)cc2F)cc(-c2ccc(O)cc2)c1-c1ccc(O)cc1F	inactive
Cn1c(-c2ccc(O)cc2F)cc(-c2ccc(O)cc2)c1-c1ccc(O)cc1	inactive
CCCn1c(-c2ccc(O)cc2F)cc(-c2ccc(O)cc2)c1-c1ccc(O)cc1	inactive
CCCn1c(-c2ccc(O)cc2Cl)cc(-c2ccc(O)cc2)c1-c1ccc(O)cc1	inactive
CCCn1c(-c2ccc(O)cc2)cc(-c2ccc(O)cc2F)c1-c1ccc(O)cc1	inactive
CCCn1c(-c2ccc(O)cc2F)cc(-c2ccc(O)cc2F)c1-c1ccc(O)cc1F	inactive
Cn1c(-c2ccc(O)cc2)cc(-c2ccc(O)cc2)c1-c1ccc(O)cc1F	inactive
CCCn1c(-c2ccc(O)cc2F)cc(-c2ccc(O)cc2)c1-c1ccc(O)cc1F	inactive

system: MCF7; assay: Stimulation of cell growth in human MCF7 cells incubated for 20 to 100 hrs by crystal violet assay; assay type: cell-based; details: not given

Structure (SMILES)	Activity
Cn1c(-c2ccc(O)cc2F)cc(-c2ccc(O)cc2)c1-c1ccc(O)cc1F	Non-toxic
CCCn1c(-c2ccc(O)cc2F)cc(-c2ccc(O)cc2F)c1-c1ccc(O)cc1F	Non-toxic

system: MCF7; assay: Down regulation of ERalpha human MCF7 cells at 10 uM by Western blotting; assay type: functional, cell-based; details: not given

Structure (SMILES)	Activity
CCCn1c(-c2ccc(O)cc2)cc(-c2ccc(O)cc2)c1-c1ccc(O)cc1Cl	Active
Cn1c(-c2ccc(O)cc2Cl)cc(-c2ccc(O)cc2)c1-c1ccc(O)cc1	inactive
CCCn1c(-c2ccc(O)cc2)cc(-c2ccc(O)cc2)c1-c1ccc(O)cc1F	Active
Cn1c(-c2ccc(O)cc2)cc(-c2ccc(O)cc2)c1-c1ccc(O)cc1Cl	Active
Cn1c(-c2ccc(O)cc2F)cc(-c2ccc(O)cc2)c1-c1ccc(O)cc1F	Active
CCCc1c(-c2ccc(O)cc2)nn(-c2ccc(O)cc2)c1-c1ccc(O)cc1 [PROPYLPYRAZOLETRIOL]	Active
Cn1c(-c2ccc(O)cc2F)cc(-c2ccc(O)cc2)c1-c1ccc(O)cc1	inactive
CCCn1c(-c2ccc(O)cc2F)cc(-c2ccc(O)cc2)c1-c1ccc(O)cc1	Active
CCCn1c(-c2ccc(O)cc2Cl)cc(-c2ccc(O)cc2)c1-c1ccc(O)cc1	Active
CCCn1c(-c2ccc(O)cc2)cc(-c2ccc(O)cc2F)c1-c1ccc(O)cc1	Active
CCCn1c(-c2ccc(O)cc2F)cc(-c2ccc(O)cc2F)c1-c1ccc(O)cc1F	Active
Cn1c(-c2ccc(O)cc2)cc(-c2ccc(O)cc2)c1-c1ccc(O)cc1F	inactive
CCCn1c(-c2ccc(O)cc2F)cc(-c2ccc(O)cc2)c1-c1ccc(O)cc1F	Active

molecular target: T2, Estrogen receptor; assay: Activation of ERalpha in human MCF7/2a cells by luciferase reporter gene assay relative to untreated control; assay type: cell-based; details: not given

Structure (SMILES)	EC50 [nM]
CCCn1c(-c2ccc(O)cc2)cc(-c2ccc(O)cc2)c1-c1ccc(O)cc1Cl	63
CCCn1c(-c2ccc(O)cc2)cc(-c2ccc(O)cc2)c1-c1ccc(O)cc1F	70
Cn1c(-c2ccc(O)cc2)cc(-c2ccc(O)cc2)c1-c1ccc(O)cc1Cl	600
CCCn1c(-c2ccc(O)cc2)cc(-c2ccc(O)cc2)c1-c1ccc(O)cc1	50
Cn1c(-c2ccc(O)cc2F)cc(-c2ccc(O)cc2)c1-c1ccc(O)cc1F	290
CCCc1c(-c2ccc(O)cc2)cn(-c2ccc(O)cc2)c1-c1ccc(O)cc1	70
CCCc1c(-c2ccc(O)cc2)nn(-c2ccc(O)cc2)c1-c1ccc(O)cc1 [PROPYLPYRAZOLETRIOL]	3
CCCn1c(-c2ccc(O)cc2F)cc(-c2ccc(O)cc2)c1-c1ccc(O)cc1	240
CCCn1c(-c2ccc(O)cc2)cc(-c2ccc(O)cc2F)c1-c1ccc(O)cc1	26
CCCn1c(-c2ccc(O)cc2F)cc(-c2ccc(O)cc2F)c1-c1ccc(O)cc1F	23
CCCn1c(-c2ccc(O)cc2F)cc(-c2ccc(O)cc2)c1-c1ccc(O)cc1F	30
